Measurements: patent US20260200947A1, “FUSED CYCLIC COMPOUNDS AND USE THEREOF” (Jacobio Pharmaceuticals Co., Ltd., priority 2022, published 2026)

Assays:
GDP-KRAS G12V = GDP-KRAS G12V (Homo sapiens, UniProt P01116, G12V); test: biochemical
GppNp-KRAS G12V = GppNp-KRAS G12V (Homo sapiens, UniProt P01116, G12V); test: biochemical
GppNp-KRAS G12D = GppNp-KRAS G12D (Homo sapiens, UniProt P01116, G12D); test: biochemical
GDP-KRAS G12D = GDP-KRAS G12D (Homo sapiens, UniProt P01116, G12D); test: biochemical
Sequence of GDP-KRAS G12D (P01116 1-169 isoform P01116-2 G12D): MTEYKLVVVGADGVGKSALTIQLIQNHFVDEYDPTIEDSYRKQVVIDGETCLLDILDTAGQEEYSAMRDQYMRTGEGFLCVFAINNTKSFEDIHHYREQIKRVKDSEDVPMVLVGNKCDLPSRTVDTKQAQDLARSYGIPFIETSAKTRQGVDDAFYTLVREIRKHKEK

Sequence of GDP-KRAS G12V (P01116 1-169 isoform P01116-2 G12V): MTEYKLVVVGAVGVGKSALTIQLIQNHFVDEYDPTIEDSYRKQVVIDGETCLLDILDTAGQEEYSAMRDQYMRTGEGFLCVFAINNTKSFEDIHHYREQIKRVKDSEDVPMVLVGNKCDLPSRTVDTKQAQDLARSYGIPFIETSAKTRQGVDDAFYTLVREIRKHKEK
Sequence of GppNp-KRAS G12V (P01116 1-169 isoform P01116-2 G12V): as above
Sequence of GppNp-KRAS G12D (P01116 1-169 isoform P01116-2 G12D): as the sequence (P01116 1-169 isoform P01116-2 G12D) above

Row | IC50 (SW620 cells (K-Ras G12V)) [nM] | SMILES | IC50 (GDP-KRAS G12V) [nM] | IC50 (GppNp-KRAS G12V) [nM] | IC50 (GppNp-KRAS G12D) [nM] | IC50 (GDP-KRAS G12D) [nM]
1 | – | N#Cc1c(N)sc2c(F)ccc(-c3c(F)c4c5c(nc(OC[C@@]67CCCN6C[C@H](F)C7)nc5c3F)N3CCCOC[C@H]3CO4)c12 (single isomer, unassigned) [Compound 163A] | 423 | > 1000 | > 1000 | 301
2 | – | C#Cc1c(F)ccc2cc(N)cc(-c3nc4c5c(nc(OC[C@@]67CCCN6C[C@H](F)C7)nc5c3F)N3CC(C)COC[C@H]3CO4)c12 (stereo partly shown) [Compound 16] | 15.2 | > 1000 | 651 | 29.7
3 | – | C#Cc1c(F)ccc2cc(N)cc(-c3nc4c5c(nc(OCC6(CN7CCOCC7)CCC6)nc5c3F)N3CCCOCC3N4C)c12 (stereo not shown) [Compound 140] | 7.11 | > 1000 | > 1000 | 13.8
4 | – | N#Cc1c(N)sc2c(F)ccc(-c3cc4c5c(nc(OC[C@@]67CCCN6C[C@H](F)C7)nc5c3F)N3CCCCC[C@H]3CO4)c12 [Compound 139] | 21.6 | > 1000 | – | 19.6
5 | – | C#Cc1c(F)ccc2cc(N)cc(-c3nc4c5c(nc(OC[C@@]67CCCN6C[C@H](F)C7)nc5c3F)N3C(C(F)F)CCOCC3N4C)c12 (stereo partly shown) [Compound 52] | 1.34 | 363 | 146 | 2.83
6 | – | C[C@H]1CCOC[C@H]2COc3c(Cl)c(-c4ccc(F)c5sc(N)c(C#N)c45)c(F)c4nc(OC[C@@]56CCCN5C[C@H](F)C6)nc(c34)N21 (atropisomer, axis not shown) [Compound 158A] | 0.939 | 4.93 | 10.8 | 0.996
7 | – | C#Cc1c(F)ccc2cc(N)cc(-c3nc4c5c(nc(OC[C@@H]6CCN6CC(F)F)nc5c3F)N3CCCOC[C@H]3CO4)c12 [Compound 23] | 36.2 | – | – | 30
8 | – | C#Cc1c(F)ccc2cc(N)cc(-c3nc4c5c(nc(OC[C@@]67CCCN6C[C@H](F)C7)nc5c3F)N3C(C5CCC5)CCOCC3N4C)c12 (stereo partly shown) [Compound 105] | 19.5 | > 1000 | > 1000 | 44.1
9 | – | C#Cc1c(F)ccc2cc(N)cc(-c3nc4c5c(nc(OC[C@@]67CCCN6C[C@H](F)C7)nc5c3F)N3C(COCCN3C)N4C)c12 (stereo partly shown) [Compound 118] | 11.7 | > 1000 | – | 11.2
10 | – | C#Cc1c(F)ccc2cc(N)cc(-c3nc4c5c(nc(OC[C@@]67CCCN6C[C@H](F)C7)nc5c3F)N3CCC(F)(F)CCC3N4C)c12 (stereo partly shown) [Compound 81] | 89.3 | > 1000 | > 1000 | 78.8
11 | – | C#Cc1c(F)ccc2cc(N)cc(-c3nc4c5c(nc(OC[C@@]67CCCN6C[C@H](F)C7)nc5c3F)N3CCCC(F)(F)C3CO4)c12 (stereo partly shown) [Compound 28] | 18.1 | – | – | 13
12 | 436 | C#Cc1c(F)ccc2cc(N)cc(-c3nc4c5c(nc(OC[C@@]67CCCN6C[C@H](F)C7)nc5c3F)N3CC(C)(O)CC[C@H]3CO4)c12 (stereo partly shown) [Compound 30] | – | – | – | –
13 | – | C#Cc1c(F)ccc2cc(N)cc(-c3nc4c5c(nc(OC[C@@]67CCCN6C[C@H](F)C7)nc5n5c(n4C)=CC=CCC5)c3F)c12 [Compound 112] | 21.6 | > 1000 | 921 | 33.4
14 | – | C#Cc1c(F)ccc2cc(N)cc(-c3nc4c5c(nc(OC[C@@]67CCCN6C[C@H](F)C7)nc5c3F)N3CCCC3N4C)c12 (stereo partly shown) [Compound 153] | 13.7 | > 1000 | > 1000 | 83.4
15 | – | C#Cc1c(F)ccc2cc(N)cc(-c3nc4c5c(nc(OC[C@@]67CCCN6C[C@H](F)C7)nc5c3F)N3C/C(=N\OC)COC[C@@H]3N4C)c12 [Compound 148] | 403 | > 1000 | > 1000 | 287
16 | – | C#Cc1c(F)ccc2cc(N)cc(-c3nc4c5c(nc(OC[C@@]67CCCN6C[C@H](F)C7)nc5c3F)N3C/C(=N\OC)COC[C@H]3N4C)c12 [Compound 137] | 1.84 | 486 | 210 | 1.86
